From patent US20110039763A1, “TARGETED ANTIMICROBIAL MOIETIES” (C3 JIAN, INC., priority 2009, published 2011)
Entries after “also recorded” stand apart in the source; their conditions may differ. Ends that are not written are not given here.

Tests used:
[1] = test system: S. pneumoniae; test: MIC test / antimicrobial activity, S. pneumoniae; type: cell-based, Streptococcus pneumoniae
Experimental: (§1) The active AMPs, STAMPs and the like can be identified and/or validated using an in vitro screening assay.
(§2) It will be appreciated that other assays as are well known in the art or that will become apparent to those having skill in the art upon review of this disclosure may also be used to identify active AMPs. Such assays include, for example, the assay described in Lehrer et al. (1988) J. Immunol.
(§3) Peptides were evaluated for basic antimicrobial activity by broth microdilution, as described previously (Eckert et al. (2006) Antimicrob Agents Chemother., 50: 3651-3657; Eckert et al. (2006) Antimicrob Agents Chemother., 50: 1480-1488). Briefly, ˜1×10^5 cfu/mL bacteria were diluted in TH (S. mutans), or Mueller-Hinton (MH) broth (all other organisms) and distributed to 96-well plates. Serially-diluted (2-fold) peptides were then added and the plates incubated at 37° C. for 18-24 h. […] All experiments were conducted 10 times.

[2] = test system: microorganisms; test: Peptide activities: targeting/binding, antimicrobial, growth or phenotype altering (Tables 7, 8); type: cell-based; details: peptides having multiple activities
[3] = test system: microorganisms; test: Targeting peptide binding to target microorganisms (Tables 3, 10, 12); details: microorganism(s) the targeting peptide binds, preferably 1x PBS
[4] = test system: microorganisms; test: Morphology, biofilm and growth disrupting peptides (Table 5); type: cell-based; parameters: key: A: Peptide aggregates; B: Less hyphal formation; Clumps; Diffuse clumps and small polyps; F: Diffuse growth; H: Thin; I: Growth inhibition; Microcolony formation; Rippled; Small polyps; Thick; W: Halo formation on top, microlonies on bottom
From the text: In certain embodiments peptides that induce alterations in phenotype or other biological activities can also be used as antimicrobial effector moieties.

[5] = test system: MRSA; test: MIC test / antimicrobial activity, MRSA; type: cell-based, Methicillin-resistant Staphylococcus aureus
Experimental: as §1, §2, §3

[6] = test system: S. epidermidis; test: MIC test (broth microdilution) / antimicrobial activity, S. epidermidis; type: cell-based, Staphylococcus epidermidis; details: S. epidermidis
Experimental: as §1, §2, §3

[7] = test system: A. niger; test: MIC test / antimicrobial activity, A. niger; type: cell-based, Aspergillus niger
Experimental: as §1, §2, §3

[8] = test system: B. subtilis; test: MIC test / antimicrobial activity, B. subtilis; type: cell-based, Bacillus subtilis; details: B. subtilis
Experimental: as §1, §2, §3

[9] = test system: A. baumannii; test: MIC test / antimicrobial activity, A. baumannii; type: cell-based, Acinetobacter baumannii
Experimental: as §1, §2, §3

[10] = test system: T. rubrum; test: MIC test / antimicrobial activity, T. rubrum; type: cell-based, Trichophyton rubrum
Experimental: as §1, §2, §3

[11] = test system: S. mutans; test: MIC test (broth microdilution) / antimicrobial activity, S. mutans; type: cell-based, Streptococcus mutans
Experimental: as §1, §2, §3

[12] = binding in aqueous buffers varied with peptide solubility

Substance | Organism MIC (μM) [1] | Activities [2] | Target(s) [3, 12] | Organism, effect ([4]; S. pneumoniae) | Organism MIC (μM) [8] | further results
ASKQASKQASKQASKQASKQASRSLKNHLL [PF-523] | S. pneumoniae, 50 μM | B M | S. epidermidis; also recorded: M. luteus; also recorded: C. albicans; also recorded: S. pneumoniae; also recorded: C. jeikeium; also recorded: C. jejuni | – | – | –
CGKLLEQKNFFLKTR [PF-521] | S. pneumoniae, 50 μM | G B M | S. epidermidis; also recorded: E. coli; also recorded: P. aeruginosa; also recorded: S. pneumoniae; also recorded: E. faecalis | S. pneumoniae (H) | – | –
FQKPFTGEEVEDFQDDDEIPTII [PF-437] | S. pneumoniae, 50 μM | G M | – | S. pneumoniae (I) | – | –
KFQGEFTNIGQSYIVSASHMSTSLNTGK [PF-583] | – | G B M | – | S. pneumoniae (D) | – | Organism MIC (μM) [5]: MRSA, 50 μM; Organism MIC (μM) [6]: S. epidermidis, 50 μM; Organism, effect ([4]; MRSA): MRSA (I); Organism, effect ([4]; S. epidermidis): S. epidermidis (I); Organism, effect ([4]; S. mutans): S. mutans (F)
KFSDQIDKGQDALKDKLGDL [PF-525] | S. pneumoniae, 50 μM | G M | – | S. pneumoniae (H) | – | Organism MIC (μM) [7]: A. niger, 50 μM
LGLTAGVAYAAQPTNQPTNQPTNQPTNQPTNQPTNQPRW-NH2 [PF-520] | S. pneumoniae, 50 μM | G B M | – | S. pneumoniae (M) | – | –
LSEMERRRLRKRA-NH2 [PF-529] | S. pneumoniae, 50 μM | G B M | S. epidermidis and E. coli and C. albicans and MRSA and S. pneumoniae and E. faecalis and C. jeikeium | S. pneumoniae (H) | – | Organism MIC (μM) [7]: A. niger, 50 μM
LVLRICTDLFTFIKWTIKQRKS [PF-497] | – | B M | S. mutans; also recorded: B. subtilis; also recorded: E. coli | – | B. subtilis, 50 μM | –
MGIIAGIIKFIKGLIEKFTGK [PF-006] | – | G B M | – | – | B. subtilis, 25 μM | Organism MIC (μM) [5]: MRSA, 50 μM; Organism MIC (μM) [9]: A. baumannii, 50 μM; Target(s) ([3]; binding in aqueous buffers that varied with peptide solubility): S. epidermidis and M. luteus and E. coli and P. aeruginosa and MRSA and E. faecalis and C. jeikeium and C. jejuni; Organism, effect: B. subtilis ([4]; B. subtilis): B. subtilis (I); Organism, effect: C. jejuni [4]: C. jejuni (D); Organism, effect: M. luteus [4]: M. luteus (A); Organism, effect: MRSA ([4]; MRSA): MRSA (I); Organism, effect: S. epidermidis ([4]; S. epidermidis): S. epidermidis (D); Organism, effect: S. pneumoniae ([4]; S. pneumoniae): S. pneumoniae (R)
MIRIRSPTKKKLNRNSISDWKSNTSGRFFY [PF-283] | – | G B M | B. subtilis; also recorded: B. fragilis; also recorded: C. difficile | – | B. subtilis, 50 μM | Organism MIC (μM) [10]: T. rubrum, 50 μM; Organism MIC (μM) [6]: S. epidermidis, 50 μM; Organism, effect: B. subtilis ([4]; B. subtilis): B. subtilis (H); Organism, effect: S. epidermidis ([4]; S. epidermidis): S. epidermidis (H)
NYAVVSHT [PF-209] | – | G B M | C. albicans; also recorded: C. jeikeium; also recorded: C. jejuni | – | – | Organism MIC (μM) [5]: MRSA, 50 μM; Organism, effect: MRSA ([4]; MRSA): MRSA (I); Organism, effect: P. aeruginosa [4]: P. aeruginosa (H); Organism, effect: S. epidermidis ([4]; S. epidermidis): S. epidermidis (C)
PDAPRTCYHKPILAALSRIVVTDR [PF-524] | S. pneumoniae, 50 μM | G B M | S. epidermidis and E. coli and P. aeruginosa and C. albicans and MRSA and S. pneumoniae and E. faecalis and C. jeikeium | S. pneumoniae (M) | – | Organism, effect ([4]; E. coli): E. coli (M); Organism, effect ([4]; E. faecalis): E. faecalis (C); Organism, effect ([4]; MRSA): MRSA (C)
RESKLIAMADMIRRRI-NH2 [PF-545] | – | G B M | S. epidermidis; also recorded: E. coli; also recorded: P. aeruginosa; also recorded: S. pneumoniae; also recorded: E. faecalis; also recorded: C. jeikeium | – | B. subtilis, 25 μM | Organism MIC (μM) [5]: MRSA, 50 μM; Organism MIC (μM) [7]: A. niger, 50 μM; Organism, effect ([4]; B. subtilis): B. subtilis (I); Organism, effect ([4]; C. albicans): C. albicans (B); Organism, effect ([4]; C. jeikeium): C. jeikeium (H); Organism, effect ([4]; E. faecalis): E. faecalis (H)
RRGCTERLRRMARRNAWDLYAEHFY [PF-148] | – | G B M | – | – | B. subtilis, 50 μM | Organism MIC (μM) [7]: A. niger, 50 μM; Organism, effect: B. subtilis ([4]; B. subtilis): B. subtilis (I); Organism, effect: C. albicans ([4]; C. albicans): C. albicans (B); Organism, effect: C. jeikeium ([4]; C. jeikeium): C. jeikeium (H); Organism, effect: C. jejuni [4]: C. jejuni (H); Organism, effect: M. luteus [4]: M. luteus (A); Organism, effect: MRSA ([4]; MRSA): MRSA (C); Organism, effect: S. epidermidis ([4]; S. epidermidis): S. epidermidis (D); Organism, effect: S. pneumoniae ([4]; S. pneumoniae): S. pneumoniae (R)
SFMPEIQKNTIPTQMK [PF-512] | S. pneumoniae, 50 μM | G B M | S. pneumoniae; also recorded: C. jeikeium | S. pneumoniae (H) | – | –
SKFKVLRKIIIKEYKGELMLSIQKQR [PF-530] | – | G M | – | S. pneumoniae (R) | – | Organism MIC (μM) [9]: A. baumannii, 25 μM; Organism, effect ([4]; E. coli): E. coli (R); Organism, effect ([4]; E. faecalis): E. faecalis (C); Organism, effect ([4]; MRSA): MRSA (C); Organism, effect ([4]; S. epidermidis): S. epidermidis (H)
SLQSQLGPCLHDQRH [PF-448] | S. pneumoniae, 50 μM | G B M | S. epidermidis; also recorded: M. luteus; also recorded: P. mirabilis; also recorded: E. coli; also recorded: S. pneumoniae; also recorded: E. faecalis; also recorded: C. jeikeium; also recorded: C. jejuni | S. pneumoniae (I) | – | Organism MIC (μM) [7]: A. niger, 25 μM
VLPFPAIPLSRRRACVAAPRPRSRQRAS [PF-168] | – | G B M | S. epidermidis and M. luteus and E. coli and C. albicans and MRSA and C. jeikeium and C. jejuni | – | – | Organism MIC (μM) [5]: MRSA, 50 μM; Organism MIC (μM) [10]: T. rubrum, 50 μM; Organism MIC (μM) [7]: A. niger, 50 μM; Organism, effect: MRSA ([4]; MRSA): MRSA (I); Organism, effect: P. aeruginosa [4]: P. aeruginosa (H)
VMQSLYVKPPLILVTKLAQQN [PF-511] | S. pneumoniae, 50 μM | G B M | E. coli; also recorded: P. aeruginosa; also recorded: S. pneumoniae; also recorded: C. jeikeium | S. pneumoniae (H) | – | –
VYSFLYVLVIVRKLLSMKKRIERL [PF-499] | – | B M | S. mutans; also recorded: E. coli | – | B. subtilis, 50 μM | –
WSRVPGHSDTGWKVWHRW-NH2 [PF-547] | – | G B M | S. epidermidis and E. coli and P. aeruginosa and C. albicans and MRSA and S. pneumoniae and E. faecalis | – | B. subtilis, 25 μM | Organism MIC (μM) [11]: S. mutans, 12.5 μM; Organism MIC (μM) [10]: T. rubrum, 25 μM; Organism, effect ([4]; B. subtilis): B. subtilis (I); Organism, effect ([4]; E. faecalis): E. faecalis (R); Organism, effect ([4]; MRSA): MRSA (M); Organism, effect ([4]; S. epidermidis): S. epidermidis (R)
